Test results from patent US20040048772A1, “Preventives for arthritis” (priority 2001, published 2004).

Columns and labels:
[1] = tested on: Mice with Type II Collagen-Induced Arthritis; assay: Effect of N-acetylhydroxyproline in mice with type II collagen-induced arthritis (arthritis score, preventive feeding); format: in vivo, DBA/1J mice; conditions: for Score of arthritis: mean±SE, N=20, score 0-16 points
From the text: Effect of N-acetylhydroxyproline in Mice with Type II Collagen-Induced Arthritis
It is known that arthritis is induced in DBA/1J mice (Charles River) by administering type II collagen two times.
As the first administration of type II collagen, a solution prepared by mixing an equal amount of type II collagen [Collagen Gijutsu Kenshu-Kai (MCK)] and Freund's complete adjuvant (Iatron) and emulsifying the mixture using a homogenizer was intradermally administered to 6-week old male DBA/1J mice (Charles River) in an amount of 100 μl per one animal.
At day 21 after the first administration of type II collagen, as the second administration of type II collagen, a solution prepared by mixing an equal amount of type II collagen and Freund's complete adjuvant and emulsifying the mixture using a homogenizer in a similar manner was intradermally administered to the animals in an amount of 100 μl per one animal. In this manner, arthritis was induced in mice.
Starting on the day of the first administration of type II collagen, the mice were bred by feeding a powder feed, CE-2 (CLEA Japan), containing the addition of 0.02, 0.1 or 0.5% (hereinafter % refers to wt %) of N-acetylhydroxyproline (Kyowa Hakko Kogyo). As control, a group of mice were fed with the powder feed CE-2 containing no additive. At days 23, 27, 30, 33, 36, 40 and 42 after the first administration of type II collagen, the extent of the onset of arthritis was scored according to the following indices.
Scoring was carried out by applying 0-4 points with respect to […] of mice: 0: no symptom; 1: swelling of one finger or swelling (slight) of ankles; 2: swelling of 1-3 fingers or swelling of ankles; 3: swelling of 3-5 fingers plus swelling of ankles; and 4: swelling of all the fingers plus swelling of ankles. Each mouse was scored the total of the points of 4 paws, namely, 0-16 points. Twenty mice each were subjected to observation with respect to each of the conditions.
In the table, the figures show the score under different treatment conditions, which is given as mean±SE (N=20).
In the table, “no treatment” means no treatment with type II collagen.

[2] = tested on: animal model for arthritis; conditions: administration after induction of arthritis; cited from earlier work
[3] = tested on: systemic injury of ear and tail; chondral injury at joints; conditions: in vivo; cited from earlier work

CC(=O)N1C[C@H](O)C[C@H]1C(=O)O [N-Acetylhydroxyproline, N-acetylhydroxyproline]
Rising of the score of arthritis compared with feed containing no additive ([1]; 0.02% in powder feed CE-2): suppressive tendency
Score of arthritis ([1]; 0.02% in powder feed CE-2, day 23): 0.0 ± 0.0
Score of arthritis ([1]; 0.02% in powder feed CE-2, day 27): 4.2 ± 0.8
Score of arthritis ([1]; 0.02% in powder feed CE-2, day 30): 7.6 ± 0.9
Score of arthritis ([1]; 0.02% in powder feed CE-2, day 33): 9.3 ± 0.8
Score of arthritis ([1]; 0.02% in powder feed CE-2, day 36): 9.7 ± 0.9
Score of arthritis ([1]; 0.02% in powder feed CE-2, day 40): 10.0 ± 0.8
Score of arthritis ([1]; 0.02% in powder feed CE-2, day 42): 10.1 ± 0.9
Score of arthritis ([1]; 0.02% in powder feed CE-2 from first collagen administration, day 0): 0.0 ± 0.0
Rising of the score of arthritis compared with feed containing no additive ([1]; 0.1% in powder feed CE-2): suppressive tendency
Score of arthritis ([1]; 0.1% in powder feed CE-2, day 23): 0.1 ± 0.1
Score of arthritis ([1]; 0.1% in powder feed CE-2, day 27): 4.6 ± 0.9
Score of arthritis ([1]; 0.1% in powder feed CE-2, day 30): 7.3 ± 1.0
Score of arthritis ([1]; 0.1% in powder feed CE-2, day 33): 8.3 ± 1.1
Score of arthritis ([1]; 0.1% in powder feed CE-2, day 36): 8.6 ± 1.0
Score of arthritis ([1]; 0.1% in powder feed CE-2, day 40): 8.5 ± 1.0
Score of arthritis ([1]; 0.1% in powder feed CE-2, day 42): 8.7 ± 1.0
Score of arthritis ([1]; 0.1% in powder feed CE-2 from first collagen administration, day 0): 0.0 ± 0.0
Scores of arthritis compared with control (feed containing no addition) ([1]; 0.5% in powder feed CE-2): significantly low
Score of arthritis ([1]; 0.5% in powder feed CE-2, day 23): 0.0 ± 0.0
Score of arthritis ([1]; 0.5% in powder feed CE-2, day 27): 3.8 ± 0.7
Score of arthritis ([1]; 0.5% in powder feed CE-2, day 30): 5.9 ± 0.9
Score of arthritis ([1]; 0.5% in powder feed CE-2, day 33): 7.7 ± 0.8
Score of arthritis ([1]; 0.5% in powder feed CE-2, day 36): 8.1 ± 0.8
Score of arthritis ([1]; 0.5% in powder feed CE-2, day 40): 8.4 ± 0.7
Score of arthritis ([1]; 0.5% in powder feed CE-2, day 42): 8.5 ± 0.7
Score of arthritis ([1]; 0.5% in powder feed CE-2 from first collagen administration, day 0): 0.0 ± 0.0
Onset of arthritis ([1]; taken previously, before the onset of arthritis): could be suppressed
Aggravation of arthritis [2]: can prevent aggravation of arthritis
Effect on chondral injury at joints [3]: no effect
Effect on systemic injury of ear and tail [3]: shows a therapeutic effect
